{"source": "paper PMC8113213", "about": "“Physiologically based kinetic modelling based prediction of in vivo rat and human acetylcholinesterase (AChE) inhibition upon exposure to diazinon” (Archives of Toxicology, 2021)", "key": {"[1]": {"conditions": "rat; ref Poet et al. 2004; cited from earlier work"}, "[2]": {"conditions": "human; ref Garfitt et al. 2002; Poet et al. 2004; cited from earlier work"}, "rat RBC AChE": {"molecular_target": "T1, rat RBC AChE (Rattus norvegicus, UniProt P37136)", "T1 construct": "the membrane fraction (containing AChE) was sedimented by centrifugation at 20,000g for 40 min; tissue BioIVT; host or cells: rat red blood cell membranes (from whole blood)", "T1 sequence (P37136 other isoform, or with tags, fused parts or gaps)": "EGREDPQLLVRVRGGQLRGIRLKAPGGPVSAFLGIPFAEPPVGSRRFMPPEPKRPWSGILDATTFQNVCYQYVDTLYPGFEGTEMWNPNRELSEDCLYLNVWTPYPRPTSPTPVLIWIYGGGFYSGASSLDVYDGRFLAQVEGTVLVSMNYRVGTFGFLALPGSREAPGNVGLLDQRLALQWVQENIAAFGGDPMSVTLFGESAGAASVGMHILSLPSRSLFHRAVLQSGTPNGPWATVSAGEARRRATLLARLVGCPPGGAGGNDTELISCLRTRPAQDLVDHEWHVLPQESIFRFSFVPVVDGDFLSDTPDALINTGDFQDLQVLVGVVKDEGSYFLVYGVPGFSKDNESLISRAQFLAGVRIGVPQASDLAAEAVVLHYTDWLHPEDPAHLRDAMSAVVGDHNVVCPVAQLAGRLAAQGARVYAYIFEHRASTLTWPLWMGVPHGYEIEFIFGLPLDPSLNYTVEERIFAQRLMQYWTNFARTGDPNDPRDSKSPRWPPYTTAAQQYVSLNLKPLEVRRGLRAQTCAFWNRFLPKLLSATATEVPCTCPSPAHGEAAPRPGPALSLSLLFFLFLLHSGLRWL", "test": "In vitro AChE inhibition assay (Ellman) with extracted rat RBC AChE", "assay_type": "biochemical", "conditions": "rat; IC50 DZO/IC50 DZN, TEF of DZO set at 1.0", "procedure": "(§1) However, since recombinant rat AChE was not commercially available, extracted rat RBC AChE was used. […] The concentration of DTNB was calculated based on the concentration ratio (ATC/DTNB) of 2 (Stern et al. [2014]). […] To initiate the inhibition reaction, 1 µl rhAChE or rat AChE (final concentration 0.6 mU/ml) was added to the incubation. The total incubation volume was 50 µl. After 15 min incubation at 37℃, 150 µl reaction reagents (mixture of ATC at a final concentration of 150 µM and DTNB at a final concentration of 75 µM) were added into each well. The final total volume of each well was 200 µl. Subsequently, the 96-well plate was measured continuously for 10 min at absorbance 412 nm at 37℃ to quantify the remaining AChE activity.\n(§2) The rhAChE and rat AChE activity were expressed as the remaining AChE activity relative to solvent control (100% activity) and positive control (0% activity) based on Eq. (2):2 AChEactivity\\%=A412t10-t0testcompound-A412t10-t0positivecontrol/A412t10-t0solventcontrol-A412t10-t0positivecontrol×100\\% , where the A412(t10 − t0)test compound is the change in the absorbance at A412 nm between 0 and 10 min for the test compound, the A412(t10 − t0)positive control is the change in the absorbance at A412 nm between 0 and 10 min for the CPO sample, and the A412(t10 − t0)solvent control is the change in the absorbance at A412nm between 0 and 10 min for the 0.2% ethanol sample."}, "[3]": {"molecular_target": "T2, recombinant human AChE (rhAChE) (Homo sapiens, UniProt P22303)", "T2 construct": "purchased Sigma-Aldrich Co", "T2 sequence (P22303 32-614)": "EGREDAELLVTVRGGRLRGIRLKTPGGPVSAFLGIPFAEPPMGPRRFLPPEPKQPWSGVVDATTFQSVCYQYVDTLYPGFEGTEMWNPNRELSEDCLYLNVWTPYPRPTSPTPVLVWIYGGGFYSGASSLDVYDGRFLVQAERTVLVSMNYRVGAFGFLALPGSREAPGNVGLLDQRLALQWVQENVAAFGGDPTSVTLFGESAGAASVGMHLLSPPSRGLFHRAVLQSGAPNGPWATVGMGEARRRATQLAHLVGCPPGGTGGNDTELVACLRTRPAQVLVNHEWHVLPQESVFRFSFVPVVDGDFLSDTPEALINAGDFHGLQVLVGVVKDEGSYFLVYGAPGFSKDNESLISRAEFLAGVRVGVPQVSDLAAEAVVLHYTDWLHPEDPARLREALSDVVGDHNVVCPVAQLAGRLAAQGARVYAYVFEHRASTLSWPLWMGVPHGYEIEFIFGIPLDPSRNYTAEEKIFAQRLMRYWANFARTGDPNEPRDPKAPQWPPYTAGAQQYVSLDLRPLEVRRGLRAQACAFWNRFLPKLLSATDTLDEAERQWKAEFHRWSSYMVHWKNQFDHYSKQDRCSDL", "test": "biochemical", "procedure": "as §1, §2"}, "PON1 [4]": {"molecular_target": "T3, PON1 (Homo sapiens, UniProt P27169)", "T3 construct": "1 µl of human or rat liver microsomes (final concentration 0.1 mg microsomal protein/ml); tissue Corning; host or cells: human liver microsomes, pooled from 20 donors", "T3 sequence (P27169 whole entry)": "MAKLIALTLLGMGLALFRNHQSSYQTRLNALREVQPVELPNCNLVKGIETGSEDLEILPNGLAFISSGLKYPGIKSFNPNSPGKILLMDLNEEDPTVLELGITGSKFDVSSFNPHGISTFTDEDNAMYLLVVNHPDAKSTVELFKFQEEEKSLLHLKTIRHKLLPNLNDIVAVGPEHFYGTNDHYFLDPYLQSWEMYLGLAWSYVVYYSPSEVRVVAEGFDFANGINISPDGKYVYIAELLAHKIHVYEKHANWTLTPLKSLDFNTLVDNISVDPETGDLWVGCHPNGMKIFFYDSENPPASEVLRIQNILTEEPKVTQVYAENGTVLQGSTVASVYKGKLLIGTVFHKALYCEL", "test": "in vitro", "assay_type": "in vitro ADME", "conditions": "for Km: pH 7.4", "procedure": "(§3) Preliminary studies were carried to optimize and select the incubation conditions with respect to linearity for both incubation time and microsomal/plasma protein concentration (data not shown). […] After 1 min preincubation in a 37 °C water bath, 1 µl of human or rat liver microsomes (final concentration 0.1 mg microsomal protein/ml), or 1 µl of human or rat plasma (final concentration 0.385 mg plasma protein/ml for human plasma and 0.300 mg plasma protein/ml for rat plasma) was added to initiate the reaction. The total incubation mixture was 200 µl. Control incubations were carried out by replacing liver microsomes or plasma with buffer. The reaction was terminated after 1 min incubation (human samples) or 2 min incubation (rat samples) by adding 200 µl ice-cold ACN. Subsequently, samples were centrifuged at 16000 g (4℃) for 5 min, and supernatants were further diluted (30 × for liver sample and 40 × for plasma sample) in a mixture of ACN and 50 mM Tris–HCl (pH 7.4) (ratio 1:1, v/v) before analysis by LC–MS/MS for quantification of metabolite formation.\n(§4) The chromatographic separations were conducted on a Kinetex® 1.7 µm Phenyl-Hexyl 100 Å LC column (100 × 2.1 mm). The injection volume was 1 µl at a flow rate of 0.3 ml/min. The temperature of the column was kept at 40℃. The mobile phase A consisted of ultrapure water with 0.1% (v/v) formic acid, and mobile phase B consisted of acetonitrile (ACN) with 0.1% (v/v) formic acid. […] The instrument was used in positive mode with multiple reaction monitoring (MRM). The optimized acquisition parameters for DZN, DZO and the metabolite IMHP are listed in Supplementary data I.\n(§5) The calculation was done using GraphPad Prism 5 for Windows, version 5.04 (GraphPad software, San Diego California USA)."}, "[5]": {"test": "Unbound fraction in the in vitro medium by rapid equilibrium dialysis (RED)", "assay_type": "in vitro ADME", "procedure": "To assess whether this assumption is reasonable, the fuDZOin vitro was determined. This was done using rapid equilibrium dialysis (RED) performed in line with the manufacturer’s protocol (Thermo Fisher Scientific [2012]). […] The whole device was then incubated for 5 h at 37℃ on a shaker at 250 rmp to reach equilibrium. Then 50 µl of post-incubation sample were separately collected from the sample and buffer chambers into the corresponding Eppendorf tubes. After this 50 µl of PBS buffer was added to the sample taken from the sample chamber and 50 µl of in vitro medium was added to the sample taken from buffer chamber and subsequently 300 µl ice-cold 90% acetonitrile (ACN/water, v/v) were added to both samples to precipitate the protein. All samples were put on ice for 30 min, followed by centrifugation for 30 min at 15,000g. The supernatants were collected for LC–MS/MS analysis of the amount of DZO."}, "PON1 [6]": {"molecular_target": "T4, PON1 (Rattus norvegicus, UniProt P55159)", "T4 sequence (P55159 whole entry)": "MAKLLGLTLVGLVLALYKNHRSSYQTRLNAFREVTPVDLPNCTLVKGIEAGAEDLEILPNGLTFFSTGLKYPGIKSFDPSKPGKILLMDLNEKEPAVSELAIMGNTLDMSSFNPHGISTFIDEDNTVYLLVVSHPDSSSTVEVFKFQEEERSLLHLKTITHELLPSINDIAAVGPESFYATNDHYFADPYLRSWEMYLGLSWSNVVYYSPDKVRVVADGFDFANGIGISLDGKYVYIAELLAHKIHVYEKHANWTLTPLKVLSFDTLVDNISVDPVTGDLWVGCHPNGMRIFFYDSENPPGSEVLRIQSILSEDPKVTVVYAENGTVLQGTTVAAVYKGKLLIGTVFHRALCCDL", "test": "in vitro", "assay_type": "in vitro ADME", "design": "1 µl of human or rat liver microsomes (final concentration 0.1 mg microsomal protein/ml); tissue Corning; host or cells: rat liver microsomes (Sprague–Dawley, male)", "conditions": "for Km: pH 7.4", "procedure": "as §3, §4, §5"}, "PON1 [7]": {"molecular_target": "T4, PON1", "conditions": "ref Makhaeva et al. 2009; cited from earlier work"}}, "note": "Read-outs that look alike come from different tables or passages of the source."}
{"smiles": "CCOP(=O)(O)OCC", "note": "[DEP, diethylphosphate]", "values": [{"measurement": "Ke, elimination into the urine", "setting": "[1]", "result": 0.29, "unit": "h⁻¹"}, {"measurement": "Ke, elimination into the urine", "setting": "[2]", "result": 12, "unit": "h⁻¹"}]}
{"smiles": "CCOP(=O)(OCC)Oc1cc(C)nc(C(C)C)n1", "note": "[DZO, Diazoxon]", "values": [{"measurement": "toxic equivalency factor (TEF)", "setting": "rat RBC AChE", "result": 1.0}, {"measurement": "toxic equivalency factor (TEF)", "setting": "[3]; human, IC50 DZO/IC50 DZN, TEF of DZO set at 1.0", "result": 1.0}, {"measurement": "IC50", "setting": "[3]; rhAChE, 15 min incubation at 37℃, read-out: IC50 for inhibition of AChE activity", "result": 44, "unit": "nM"}, {"measurement": "Vmax DZO to IMHP, plasma", "setting": "PON1 [4]", "result": "124.000 nmol/min/mg plasma protein"}, {"measurement": "Vmax DZO to IMHP, liver", "setting": "PON1 [4]; human liver microsomes", "result": "53.490 nmol/min/mg microsomal protein"}, {"measurement": "Km", "setting": "PON1 [4]; human liver microsomes", "result": 557, "unit": "µM"}, {"measurement": "Km", "setting": "PON1 [4]; human plasma", "result": 701, "unit": "µM"}, {"measurement": "recovery at 5 h, 0.05 µM", "setting": "[5]; in vitro medium in a RED insert device, read-out: recovery rate of post-dialysis in the in vitro medium", "result": 74, "unit": "%"}, {"measurement": "fraction unbound at 5 h, 0.05 µM", "setting": "[5]; in vitro medium with 0.1 mg/ml BSA, read-out: unbound fraction in the in vitro medium (fu in vitro)", "result": 0.96}, {"measurement": "Km", "setting": "PON1 [6]; rat liver microsomes", "result": 668, "unit": "µM"}, {"measurement": "Km", "setting": "PON1 [6]; rat plasma", "result": 536, "unit": "µM"}, {"measurement": "Vmax DZO to IMHP, liver", "setting": "PON1 [6]; rat liver microsomes", "result": "691.100 nmol/min/mg microsomal protein"}, {"measurement": "Vmax DZO to IMHP, plasma", "setting": "PON1 [6]; rat plasma", "result": "431.400 nmol/min/mg plasma protein"}, {"measurement": "PON1-mediated conversion of DZO faster in rat liver than in human liver", "setting": "PON1 [6]; rat versus human liver", "result": 10.7, "unit": "fold"}, {"measurement": "higher Vmax of PON1-mediated conversion in rat liver", "setting": "PON1 [6]; rat versus human liver", "result": 12.9, "unit": "fold"}, {"measurement": "PON1-mediated conversion of DZO faster in rat plasma than in human plasma", "setting": "PON1 [6]; rat versus human plasma", "result": 4.5, "unit": "fold"}, {"measurement": "higher Vmax of PON1-mediated conversion in rat plasma", "setting": "PON1 [6]; rat versus human plasma", "result": 3.5, "unit": "fold"}]}
{"smiles": "Cc1cc(=O)nc(C(C)C)[nH]1", "note": "[IMHP, 2-isopropyl-4-methyl-6-hydroxypyrimidine]", "values": [{"measurement": "Ke, elimination into the urine", "setting": "[1]", "result": 0.29, "unit": "h⁻¹"}, {"measurement": "Ke, elimination into the urine", "setting": "[2]", "result": 12, "unit": "h⁻¹"}]}
{"smiles": "CCOP(O)(=S)OCC", "note": "[DETP, diethylthiophosphate]", "values": [{"measurement": "Ke, elimination into the urine", "setting": "[1]", "result": 0.29, "unit": "h⁻¹"}, {"measurement": "Ke, elimination into the urine", "setting": "[2]", "result": 12, "unit": "h⁻¹"}]}
{"smiles": "CCOP(=O)(OCC)Oc1ccc([N+](=O)[O-])cc1", "note": "[paraoxon]", "values": [{"measurement": "faster PON1-mediated hydrolysis by rat than human plasma samples", "setting": "PON1 [7]", "result": "approximately 4 fold"}]}
